According to patent US20080003691A1, “Method of Detecting Conformational Change of an Amyloid Protein, a Method of Searching a Substance Having an Activity that Affects to Conformational Change of an Amyloid Protein, and Method of Searching a Therapeutic or Diagnostic Agent for Amyloid-Related Diseases” (Fuence Co., Ltd., priority 2004, published 2008):

Columns and labels:
amyloid β (1-42) = target: T1, amyloid β (1-42) (Homo sapiens, UniProt P05067); test: changes in tension and elasticity of amyloid β (1-42) film measured with a mechanochemical sensor; assay type: biochemical
T1 construct: Amyloid β (1-42) (Bachem AG, Budendorf, Switzerland); purchased Bachem AG
T1 sequence (P05067 672-713): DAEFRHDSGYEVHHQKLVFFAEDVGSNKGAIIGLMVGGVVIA
Experimental: (§1) Amyloid β (1-42) (Bachem AG, Budendorf, Switzerland) was dissolved in 0.1% ammonia water at the concentration of 1 mg/mL. This solution was sprayed under dry air using an electrospry device described in WO 2002-511792 or an immobilzing device described in Japanese Patent Publication No. 2003-136005. The solution was permeated through a mask with holes of 400 μm in length and 800 μm in width, and then a film having 1 μm thickness was prepared on 1.2% polyvinyl pyrrolidone, using an electrospray method (the EDS method). Then protein was cross-linked by glutaraldehyde.
(§2) The resulting film was placed on an apparatus having a mechanochemical sensor which was described in WO 2002-503332 or U.S. Patent Publication No. 6033913, and it was immersed into 10 mM Hepes pH7.4 buffer solution (hereinafter referred to as “the buffer solution”) containing 0.15 M NaCl. The buffer solution was passed through the film existing on the detecting apparatus at the flow rate of 0.1 to 0.2 mL/min, in order to stabilize the tension of the sample film. Thereafter ZnCl2 solution dissolved in said buffer solution was passed through to detect changes in tension and elasticity (FIG. 1).
In FIG. 1, a place where the line uprises from the horizontal state (i.e. steady state), means a point where tension is given to the sample film, and compliance is detected where the line oscillates. […] It is assumed that the particular interaction referred herein is aggregation of amyloid β (1-42) caused by Zn^2+, when considered with many reports such as X. Huang et. al., (J. Biol. Chem., 1997, 272, 26464), C. S. Atwood et. al., (J. Biol. Chem., 1998, 273, 12817), or R. A. Cherny et. al., (Neuron, 2001, 30, 665).
Further, concentration of ZnCl2 was altered from 0.01 mM to 3 mM, in order to examine the effect of ZnCl2 concentration (FIG. 2).
An amyloid β (1-42) membrane was prepared and placed on a detecting apparatus, as described in EXAMPLE 1. The changes in tension and elasticity of the membrane, by CuCl2 dissolved in the buffer solution, were examined (FIG. 3). […] It has been reported that Cu^2+, as well as Zn^2+, facilitates aggregation of amyloid β.

α-synuclein = target: T2, α-synuclein (Homo sapiens, UniProt P37840); test: changes in tension and elasticity of α-synuclein film measured with a mechanochemical sensor; assay type: biochemical; settings: FIG. 4
T2 construct: purchased BIOMOL International LP
Experimental: as §1, §2
A α-synuclein (BIOMOL International LP, PA, USA) film was prepared and placed on a detecting apparatus, as described in EXAMPLE 1. […]

[Cl][Cu][Cl] [CuCl2]
change in tension and elasticity of the amyloid β (1-42) membrane by CuCl2 (amyloid β (1-42); CuCl2 dissolved in the buffer solution, FIG. 3): concentration-dependent change

O=C(O)CN(CCN(CC(=O)O)CC(=O)O)CC(=O)O [EDTA]
tension and elasticity of the film after EDTA, relative to the state prior to addition of ZnCl2 (amyloid β (1-42); amyloid β (1-42) film previously exposed to ZnCl2, FIG. 1): restored | tension after EDTA, relative to the state prior to addition of CuCl2 (amyloid β (1-42); amyloid β (1-42) membrane previously exposed to CuCl2, FIG. 3): restored by EDTA almost to the state prior to addition of CuCl2 | tension after EDTA, relative to the state prior to addition of ZnCl2 (α-synuclein; α-synuclein film previously exposed to ZnCl2): restored by EDTA almost to the state prior to addition of ZnCl2

[Cl-].[Cl-].[Zn+2] [ZnCl2]
change in elasticity with respect to ZnCl2 concentration (amyloid β (1-42); ZnCl2 0.01 mM to 3 mM, FIG. 2): concentration-dependent | isotropic tension and compliance (the inverse of stiffness) of the amyloid β (1-42) film (amyloid β (1-42); ZnCl2 solution in 10 mM Hepes pH7.4, 0.15 M NaCl passed over the film, FIG. 1): remarkably increased | change in tension and elasticity of the α-synuclein film by ZnCl2 (α-synuclein; ZnCl2 dissolved in the buffer solution): concentration-dependent change
